Assay results taken from ChEMBL document CHEMBL1201862, “PubChem BioAssay data set” (2004).
The source made the active and inactive calls.

How the values were obtained:
[1] = target: T1, Short transient receptor potential channel 4 (Mus musculus, UniProt Q9QUQ5); assay: calcium entry via TRPC4 opening agents – cell-based, HEK293 TRPC4/mu-opioid, Fluo-4 calcium, dose response (AID 434937); type: functional
T1 sequence (Q9QUQ5 whole entry): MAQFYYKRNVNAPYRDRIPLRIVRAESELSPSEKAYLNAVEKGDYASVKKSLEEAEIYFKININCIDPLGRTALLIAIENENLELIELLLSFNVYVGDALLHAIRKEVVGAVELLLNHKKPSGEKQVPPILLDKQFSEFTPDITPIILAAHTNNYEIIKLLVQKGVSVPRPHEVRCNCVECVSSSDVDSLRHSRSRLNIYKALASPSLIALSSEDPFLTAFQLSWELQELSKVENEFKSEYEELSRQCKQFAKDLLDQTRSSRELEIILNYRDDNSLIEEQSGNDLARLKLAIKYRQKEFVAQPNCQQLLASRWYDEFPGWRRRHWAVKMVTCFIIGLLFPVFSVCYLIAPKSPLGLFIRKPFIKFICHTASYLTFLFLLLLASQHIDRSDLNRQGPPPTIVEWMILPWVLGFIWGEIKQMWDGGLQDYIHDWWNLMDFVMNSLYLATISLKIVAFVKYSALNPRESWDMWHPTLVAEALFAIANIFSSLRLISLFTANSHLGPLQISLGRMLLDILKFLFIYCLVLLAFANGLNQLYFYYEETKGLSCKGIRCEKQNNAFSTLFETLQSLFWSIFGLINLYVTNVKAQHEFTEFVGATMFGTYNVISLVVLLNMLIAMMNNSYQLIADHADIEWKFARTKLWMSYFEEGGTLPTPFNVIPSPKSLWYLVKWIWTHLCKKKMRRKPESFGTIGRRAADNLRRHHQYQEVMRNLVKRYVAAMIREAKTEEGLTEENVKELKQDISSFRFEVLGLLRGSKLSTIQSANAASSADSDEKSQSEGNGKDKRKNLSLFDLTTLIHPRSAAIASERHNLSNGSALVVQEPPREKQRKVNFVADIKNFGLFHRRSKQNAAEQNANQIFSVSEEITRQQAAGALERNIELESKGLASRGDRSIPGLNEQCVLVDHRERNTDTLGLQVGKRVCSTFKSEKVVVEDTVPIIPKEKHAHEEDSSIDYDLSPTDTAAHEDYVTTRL

[2] = target: Troponin, cardiac muscle (Homo sapiens, UniProt P19429+P45379+P63316); assay: Fluorescence-based biochemical high throughput dose response assay for activators of the calcium sensitivity of cardiac Regulated Thin Filaments (RTF). [Related pubchem assays (depositor defined):AID493008, AID493018, AID504382, AID504383]; type: protein-complex assay
[3] = test system: H4; assay: Luminescence Cell-Based Dose Response HTS to Identify Activators of 5'UTR Stem-Loop Driven Prion Protein mRNA Translation in H4 Neuroglioblastoma Cells. [Related pubchem assays: 1829 (Project Summary), 1814 (Primary HTS)]; type: functional; settings: Homo sapiens
[4] = test system: HEK293; assay: inhibition of NOD1-driven NF-kB reporter – cell-based, luminescence, uHTS, primary screen (AID 1578); type: functional; settings: Homo sapiens
[5] = test system: HEK293; assay: cells; type: functional, cell-based; settings: Homo sapiens
[6] = target: T2, Heat shock factor protein 1 (Mus musculus, UniProt P38532); assay: decrease of HSF1-responsive luciferase luminescence – cell-based, NIH3T3, dose retest, confirmation (AID 2382); type: functional;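 further: NIH3T3 fibroblasts with HSF1-driven luciferase reporter stressed by proteasome inhibitor MG132; luminescence from HSF1-driven luciferase expression after 8 hours of MG132 stress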
T2 sequence (P38532 whole entry): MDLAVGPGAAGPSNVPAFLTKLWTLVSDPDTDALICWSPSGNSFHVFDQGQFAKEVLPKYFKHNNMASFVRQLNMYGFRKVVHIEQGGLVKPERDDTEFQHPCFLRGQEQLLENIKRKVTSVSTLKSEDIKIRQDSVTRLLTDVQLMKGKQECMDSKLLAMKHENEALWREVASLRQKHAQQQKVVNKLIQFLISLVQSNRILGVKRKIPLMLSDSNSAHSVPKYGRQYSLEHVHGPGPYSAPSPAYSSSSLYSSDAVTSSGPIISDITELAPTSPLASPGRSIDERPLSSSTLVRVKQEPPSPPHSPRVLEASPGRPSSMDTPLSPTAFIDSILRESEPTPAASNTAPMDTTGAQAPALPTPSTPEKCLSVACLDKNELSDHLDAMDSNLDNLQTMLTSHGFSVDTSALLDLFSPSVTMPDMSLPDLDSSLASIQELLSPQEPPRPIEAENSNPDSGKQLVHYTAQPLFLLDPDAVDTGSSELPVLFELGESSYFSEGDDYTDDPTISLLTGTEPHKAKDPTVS

[7] = test system: HEK293; assay: cells; type: functional, cell-based; settings: Homo sapiens; remark: listed apart in the source
[8] = target: Nucleotide-binding oligomerization domain-containing protein 2 (Homo sapiens, UniProt Q9HC29); assay: inhibition of NOD2-driven NF-kB reporter – cell-based, luminescence, uHTS, HEK293 (AID 1566); type: functional
[9] = test system: HEK293; assay: NOD2 signaling inhibitors in MDP-stimulated cells, cell-based, uHTS, luminescence (AID 2001); type: functional; settings: Homo sapiens
[10] = test system: HEK293; assay: cells; type: functional, cell-based; settings: Homo sapiens; remark: listed apart in the source
[11] = target: DNA dC->dU-editing enzyme APOBEC-3A (Homo sapiens, UniProt P31941); assay: Dose Response confirmation of small molecule APOBEC3A DNA Deaminase Inhibitors via a fluorescence-based single-stranded DNA deaminase assay. [Related pubchem assays (depositor defined):AID493011, AID493024]; type: functional
[12] = target: DNA dC->dU-editing enzyme APOBEC-3G (Homo sapiens, UniProt Q9HC16); type: functional;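 further: Dose-response counterscreen measuring inhibition of APOBEC3G DNA deaminase activity, run while confirming APOBEC3A inhibitors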
[13] = target: Genome polyprotein (dengue virus type 2, UniProt P29990); assay: flavivirus cap methylation enzyme inhibition – biochemical, confirmation dose response, primary screen (AID 588689); type: functional
[14] = target: T3, Long-chain-fatty-acid--AMP ligase FadD28 (Mycobacterium tuberculosis, UniProt P9WQ59); assay: Fluorescence polarization aasay to screen for inhibitors that compete for the binding of FadD28 to a bisubstrate Measured in Biochemical System Using Plate Reader - 2147-01_Inhibitor_Dose_CherryPick_Activity.; type: functional, Mycobacterium tuberculosis H37Rv
T3 sequence (P9WQ59 whole entry): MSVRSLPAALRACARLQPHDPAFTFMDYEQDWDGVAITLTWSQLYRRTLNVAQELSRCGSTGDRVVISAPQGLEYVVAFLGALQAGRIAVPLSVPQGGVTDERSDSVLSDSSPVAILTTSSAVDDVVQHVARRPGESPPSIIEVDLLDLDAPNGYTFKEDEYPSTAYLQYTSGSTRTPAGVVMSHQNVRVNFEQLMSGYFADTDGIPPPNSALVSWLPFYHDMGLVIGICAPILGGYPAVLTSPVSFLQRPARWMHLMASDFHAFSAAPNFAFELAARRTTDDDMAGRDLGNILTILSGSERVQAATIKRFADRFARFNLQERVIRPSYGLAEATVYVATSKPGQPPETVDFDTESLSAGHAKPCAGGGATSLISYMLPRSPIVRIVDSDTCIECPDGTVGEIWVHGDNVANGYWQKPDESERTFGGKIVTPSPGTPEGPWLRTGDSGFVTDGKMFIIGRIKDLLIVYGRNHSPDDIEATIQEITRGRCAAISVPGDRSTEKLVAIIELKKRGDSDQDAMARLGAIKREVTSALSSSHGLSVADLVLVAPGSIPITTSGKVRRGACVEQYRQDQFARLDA

[15] = target: T4, Caspase-6 (Homo sapiens, UniProt P55212); assay: inhibition of CASP6 peptide cleavage – biochemical, VEID-R110 fluorescence, cherry-pick, dose response (AID 720632)
T4 sequence (P55212 whole entry): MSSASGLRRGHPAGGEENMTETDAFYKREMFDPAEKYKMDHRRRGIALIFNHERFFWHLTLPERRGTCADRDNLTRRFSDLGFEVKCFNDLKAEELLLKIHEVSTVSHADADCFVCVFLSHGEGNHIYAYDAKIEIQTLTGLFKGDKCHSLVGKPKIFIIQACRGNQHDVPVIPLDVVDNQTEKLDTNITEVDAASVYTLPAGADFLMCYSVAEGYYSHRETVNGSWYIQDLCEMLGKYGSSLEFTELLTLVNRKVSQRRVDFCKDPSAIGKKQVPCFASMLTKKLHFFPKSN

[16] = test system: Streptococcus sp. 'group A'; assay: Streptococcus pyogenes SK(-)GAS viability under kanamycin – luminescence, BacTiterGlo, confirmation, counter-screen for streptokinase expression inhibitor project, dose response (AID 1900); type: functional, organism-based
[17] = test system: Streptococcus; assay: GAS UMAA2166 growth inhibition – luminescence, BacTiterGlo, counter-screen for streptokinase expression inhibitor project, dose response (AID 1915); type: functional, organism-based;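 further: potency for reduction of bacterial viability or growth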
[18] = THP-1 cell cytotoxicity, dose response, cytotoxicity control for non-replicating M. tuberculosis project (AID 489025); type: functional
[19] = Vero E6 cell cytotoxicity, dose response, cytotoxicity control for non-replicating M. tuberculosis project, secondary assay (AID 492998); type: functional, VeroE6; settings: Vero C1008
[20] = cells; type: functional
[21] = test system: Vero; assay: cells; type: functional, cell-based; settings: Chlorocebus sabaeus
[22] = test system: Vero; assay: cells; type: functional; settings: Chlorocebus sabaeus

## CCN1CCN(c2ccc(S(=O)(=O)N3CCCCC3)cc2NC(=O)C(C)Oc2ccc(F)cc2)CC1 (centres undefined)
[1]
  EC50: 10.6 µM (active)

## CC(COC(=O)c1ccccc1)(COC(=O)c1ccccc1)/[N+]([O-])=C/c1ccccc1
[2]
  EC50: > 71.5 µM (inactive)

## CCN1C(=O)/C(=C/N2CCc3ccccc32)SC1=S
[3]
  EC50: 4.21 µM (active)
[2]
  EC50: 5.4 µM (active)

## O=C(Nc1ccncc1)c1c(F)cccc1F
[4]
  EC50: 9.17 µM (active)
[5]
  IC50: 3.91 µM (active)
[6]
  EC50: 24.1 µM (active)
[7]
  IC50: > 20 µM (inactive)
[8]
  EC50: 4.55 µM (active)
[9]
  IC50: 4.33 µM (active)
[10]
  IC50: > 20 µM (inactive)

## COc1ccc(-c2cc(C(=O)NCC(c3ccccc3)N(C)C)c3ccccc3n2)cc1OC (centres undefined)
[1]
  EC50: 10.6 µM (active)

## O=C(CCSc1ccccc1)N1CCN(C(=O)c2ccco2)CC1
[2]
  EC50: > 71.5 µM (inactive)

## C=CCOc1ccc(C(c2c(C(=O)O)[nH]c3ccccc23)c2c(C(=O)O)[nH]c3ccccc23)cc1
[11]
  IC50: 21.5 µM (active)
[12]
  IC50: 28.8 µM (active)
[13]
  IC50: 22 µM (active)
[14]
  AC50: 12 µM (active)
[15]
  AC50: 14.2 µM (active)

## COc1ccc(Cl)cc1/C=C/c1ccc2cccc(O)c2n1
[4]
  EC50: 5.5 µM (active)
[16]
  EC50: 0.786 µM (active)
[5]
  IC50: 14 µM (active)
[7]
  IC50: > 20 µM (inactive)
[8]
  EC50: > 20 µM (inactive)
[9]
  IC50: 4.73 µM (inactive)
[10]
  IC50: > 20 µM (inactive)
[17]
  EC50: 3.58 µM (active)

## c1ccc(Nc2nc(Nc3ccccc3)nc(N3CCNCC3)n2)cc1
[18]
  CC50: 23 µM (active)
[19]
  CC50: > 20 µM (active)
[1]
  EC50: 3.35 µM (active)
[20]
  IC50: 26.5 µM (active)
[21]
  IC50: > 25 µM (active)
[22]
  CC50: 22.6 µM (active)

## Cc1ccc(CNC(=O)CCNC(=O)c2ccc([N+](=O)[O-])cc2)cc1
[11]
  IC50: 6.67 µM (active)
[12]
  IC50: 10.9 µM (active)
